Where a name gives a salt, the structure may show the parent alone.
Legend:
[1] = system: AVP-induced pressor response (V1A antagonism); assay: Antagonism of AVP-induced pressor response, oral, rats; type: in vivo
[2] = system: AVP-induced pressor response (V1A antagonism); assay: Antagonism of AVP-induced pressor response, IV, dogs; type: in vivo
[3] = system: urinary output (V2 antagonism); assay: Urinary output and osmolality in conscious dogs; type: in vivo
[4] = system: dogs with heart failure induced by rapid right ventricular pacing; assay: Heart failure induced by rapid right ventricular pacing; type: in vivo; settings: IV 0.1 mg/kg
[5] = Oral pharmacokinetics in rat; type: in vivo
Source text: (§1) There is a marked food effect with absorption reduced by >50% in dogs after a meal.

[6] = Oral pharmacokinetics in dog; type: in vivo
Source text: as §1

[7] = system: dogs; assay: 2- and 13-week oral toxicity studies in dogs; type: in vivo
[8] = system: rats; assay: Reproductive performance / fertility studies in rats; type: in vivo
[9] = system: rats; assay: Teratogenicity in rats; type: in vivo
[10] = system: rabbits; assay: Teratogenicity in rabbits; type: in vivo
[11] = system: bacteria; assay: Mutagenicity in bacteria; type: cell-based
[12] = system: human lymphocytes; assay: Clastogenicity in human lymphocytes in vitro; type: cell-based
[13] = system: bone marrow of rats; assay: Clastogenicity in bone marrow of rats; type: in vivo
[14] = system: rats; settings: rat, in vivo, iv, 2.5 mg/kg
[15] = system: dogs; settings: dog, in vivo, iv, 2 mg/kg
[16] = system: AVP-induced platelet aggregation (V1A antagonist activity); assay: AVP-induced platelet aggregation in Phase 1 subjects; type: in vivo, human; settings: 20 mg/day orally or 2.5 mg IV
[17] = system: AVP-induced dermal vasoconstriction; assay: AVP-induced dermal vasoconstriction in Phase 1 subjects; type: in vivo, human; settings: 50 mg IV
[18] = system: aquaretic action (V2-receptor antagonism); assay: Aquaretic action in normal subjects; type: in vivo, human
[19] = system: subjects; assay: Safety in Phase 1 subjects; type: in vivo, human
Source text: Other adverse events included flushes, a sensation of cold extremities, abdominal complaints, abnormal stools, syncope, dizziness, palpitations, and postural hypotension. Three subjects who received YM087 and one subject who received placebo developed minor, reversible leukopenia. […] These observations were considered related to antagonism of V2 receptors and not a safety concern. Vital signs (blood pressure and heart rate) were unaffected by YM087.

[20] = system: patients with NYHA Class III/IV heart failure; assay: Double-blind placebo-controlled IV dose-response study of cardiopulmonary hemodynamics in NYHA Class III/IV heart failure patients on ACE inhibitor background; type: in vivo, human; settings: CHF patients
Procedure: These patients have advanced CHF/LV dysfunction. Patients must be receiving background therapy of diuretics, ACE inhibitors, and optionally digoxin and/or β-blocker; patients will be stratified as to whether they are receiving concomitant β-blocker treatment. […] Patients should take their daily dose of concomitant heart failure medications within 2 hours of catheter insertion. No additional doses of background heart failure medications should be administered during the study treatment phase. After insertion of a balloon-floatation pulmonary artery catheter, serial measurements will be obtained over an 8- to 18-hour baseline and stabilization period. […] The mean baseline PCWP in this study group was 24.2 mmHg. The mean baseline CI was 2.1 L/min/m^2. […] Fluid intake will be restricted to 250 mL every 2 hours (except at time of IV infusion) from time of insertion of Swan-Ganz catheter and throughout the treatment period. […] Serum electrolytes, BUN, creatinine, and serum osmolality will be measured at baseline and 4 and 12 hours posttreatment. Clinical laboratory and vasopressin plasma levels will be measured at baseline and 12 hours postdrug administration. […] Patients meeting baseline eligibility criteria (CI≦2.6 L/min/m^2; PCWP≧16 mmHg) on successive readings at least 30 minutes apart during 2 hours prior to study drug administration will enter the treatment phase. […] Clinical laboratory and vasopressin plasma levels will be measured 12 hours postdose. […] Serum electrolytes, BUN, creatinine, serum osmolality will be measured at 4 and 12 hours posttreatment. […] For this study, hemodynamic efficacy parameters of PCWP, CI, SVR, and PVR will be evaluated in terms of their response profile. The response profile will be assessed in terms of peak change, and AUC delimited by the parameter change from baseline and measurement times. […] If measurements are missing at certain times, the AUC will be calculated using all other available observations. Dose response over the treatment groups will be assessed for selected measures. […]

[21] = system: rats; settings: female rats, 13-week repeated oral dose
[22] = Pharmacokinetics in healthy subjects (Phase 1); settings: human

Cc1nc2c([nH]1)-c1ccccc1N(C(=O)c1ccc(NC(=O)c3ccccc3-c3ccccc3)cc1)CC2 [YM087, N-[4-(2-methyl-,4,5,6-tetrahydrornidazo[4,5-d][1]benzazepin-6-ylcarbonyl)phenyl]biphenyl-2-carboxamide hydrochloride]
dose that reduced the AVP response by 50% (ID50) [1]: 0.32 mg/kg | ID50, AVP-induced pressor response [2]: 0.026 mg/kg | urinary output ([3]; conscious dogs, oral 0.03 to 0.3 mg/kg, dose-related): increased urinary output | urinary osmolality ([3]; conscious dogs, oral 0.03 to 0.3 mg/kg, reduced from 1500): < 100 mOsm/kg H2O | effect on urinary sodium (Na) or potassium (K) excretion ([3]; unlike furosemide): little or no effect | cardiac function [4]: significantly improved the depressed cardiac function | diuresis [4]: produced a water diuresis | time to peak concentrations [5]: 0.5 h | time to peak concentrations [6]: 1 h | peripheral blood counts ([7]; affected dogs, 13-week study): Decreased peripheral erythrocyte, leukocyte, and/or platelet counts | reversibility of bone marrow and peripheral blood changes ([7]; dogs): reversible | bone marrow histopathology ([7]; dogs, 2- and 13-week oral studies): Histopathologic changes in bone marrow were observed | female fertility ([8]; female rats, 100 mg/kg orally for 2 weeks prior to mating with untreated males): reduced fertility index, increased implantation loss, and decreased live fetuses | reproductive performance of male rats ([8]; male rats): did not affect | teratogenicity [9]: not teratogenic | teratogenicity [10]: not teratogenic | mutagenicity [11]: not mutagenic | clastogenicity [12]: not clastogenic | clastogenicity [13]: not clastogenic | toxicity [14]: No toxicity was observed | toxicity [15]: No toxicity was observed | AVP-induced platelet aggregation [16]: Inhibition | AVP-induced dermal vasoconstriction [17]: Total inhibition | duration of increased urine production rate postdosing ([18]; IV 50 mg/day): ≤ 6 h | duration of increased urine production rate postdosing ([18]; IV doses up to 250 μg/kg): up to 3 hours | tolerability of aquaretic effects ([18]; normal subjects, 120 mg QD or 60 mg BID orally or 50 mg IV): too uncomfortable in normal subjects to be tolerable | dose at which aquaretic action with decrease in urine osmolarity starts ([18]; normal subjects, IV): 0.05 mg/kg | dose at which aquaretic action with decrease in urine osmolarity starts ([18]; normal subjects, oral): 15 mg | overall safety ([19]; approximately 250 subjects treated): no major safety concerns were identified | urinary and plasma osmolarity ([19]; at higher doses, with or without an increase in plasma sodium): urinary osmolarity decreased and plasma osmolarity increased | biochemical or hematological laboratory parameters ([19]; human, in vivo): No drug-related trend was observed | vital signs (blood pressure and heart rate) ([19]; human, in vivo): unaffected | serious adverse event ([19]; one patient with severe CHF, 80 mg/day for 4 days, relation to study drug could not be excluded): generalized tonic clonic seizure | number of subjects who developed minor, reversible leukopenia ([19]; one subject on placebo also): Three | most frequent adverse events ([19]; regardless of treatment association): mild or moderate thirst and mild headache | pulmonary capillary wedge pressure (PCWP) ([20]; IV 10, 20 or 40 mg, 85% receiving ACE inhibitor, FIG. 1): significant reductions | right atrial pressure (RAP) ([20]; IV 10, 20 or 40 mg, 85% receiving ACE inhibitor, FIG. 2): significant reduction | hemodynamic effect as add-on therapy to ACE inhibitors ([20]; add-on to normal treatment with ACE inhibitors): surprisingly favorable hemodynamic effect | uterine weights [21]: decreased at all doses | half-life ([22]; plasma): 4 to 5 h | bioavailability ([22]; plasma, oral): 43 to 59% | Tmax ([22]; plasma, po): ~1 h | plasma levels on repeated dosing ([22]; repeated BID oral doses, 60 mg): unexpectedly high plasma levels after the second dose
